Reference: patent US8034908B2, “Glycolipids and synthetic method thereof as well as their synthetic intermediates, and synthetic method thereof” (Japan as Represented by President of National Center of …, priority 2003, dated 2011)

Key:
[1] = test system: Splenocytes; experiment: Test of production of cytokines by glycolipid derivative (in vitro), mouse splenocytes, ELISA; format: cell-based, C57BL/6 mice; details: for IFN-γ / IL-4: glycolipid 100 ng/ml, 72 hours culture, culture supernatant, ELISA
Description: Test of Production of Cytokines by Glycolipid Derivative (In Vitro)
Splenocytes were prepared from the spleens of C57BL/6 mice (6 to 8 weeks old, female) and suspended in a RPMI1640 medium (purchased by Nakarai) containing 10% fetal bovine serum (purchased by GIBCO), 5×10-^5M 2-mercaptoethanol (purchased by GIBCO), 1 mM pyruvate (purchased by SIGMA), and 25 mM HEPE (purchased by SIGMA). These were seeded on a 96-well flat bottom plate (purchased by IWAKI) in an amount of 5×10e5 cells/well and a glycolipid derivative was added to each at a final concentration of 100 ng/ml. The results were cultured at 37° C. in the presence of 5% CO2 for 72 hours, then the culture supernatent was collected. The concentration of the IL-4 and IFN-γ in the culture supernatent were measured by ELISA (BD Pharmingen EIA Kit) (Table 2).

[2] = test system: mouse experimental autoimmunological encephalomyelitis (EAE) model; details: oral administration; cited from earlier work
[3] = test system: NKT cells; details: cited from earlier work

| Structure (SMILES) | IFN-γ [1] | IL-4 [1] | Effect in EAE model (in words) [2] | Cytokines produced by NKT cells (in words) [3] | IFN-γ producing activity (in words) ([1]; compared with α-GalCer, Table 2) |
| --- | --- | --- | --- | --- | --- |
| CCCCCCCCCCCCCCCCCCCCCCC(=O)N[C@@H](COC1OC(CO)C(O)C(O)C1O)[C@H](O)[C@H](O)CCCC (stereo partly drawn) [Compound 110, 2-tricosanoylamino-1-O-α-D-galactopyranosyl-D-ribo-1,3,4-octanetriol] | 10614 pg/mL | 226 pg/mL | – | – | – |
| CCCCCCCCCCCCCCCCCCCCCC(=O)N[C@@H](COC1OC(CO)C(O)C(O)C1O)[C@H](O)[C@H](O)CCC (stereo partly drawn) [Compound 111, 2-docasanoylamino-1-O-α-D-galactopyranosyl-D-ribo-1,3,4-heptanetriol] | 7413 pg/mL | 256 pg/mL | – | – | – |
| CCCCCCCCCCCCCCCCCCCCCCC(=O)N[C@@H](COC1OC(CO)C(O)C(O)C1O)[C@H](O)[C@H](O)CC (stereo partly drawn) [Compound 112, 2-tricosanoylamino-1-O-α-D-galactopyranosyl-D-ribo-1,3,4-hexanetriol] | 5832 pg/mL | 237 pg/mL | – | – | – |
| CCCCCCCCCCCCCCCCCCCCCC(=O)N[C@@H](COC1OC(CO)C(O)C(O)C1O)[C@H](O)[C@H](O)CCCCCC (stereo partly drawn) [Compound 113, 2-docasanoylamino-1-O-α-D-galactopyranosyl-D-ribo-1,3,4-decanetriol] | 7967 pg/mL | 251 pg/mL | – | – | – |
| CCCCCCCCCCCCCCCCCCCCCCC(=O)N[C@@H](CO[C@H]1O[C@H](CO)[C@H](O)[C@H](O)[C@H]1O)[C@H](O)[C@H](O)CCCCCC [Compound 114, 2-tricosanoylamino-1-O-α-D-galactopyranosyl-D-ribo-1,3,4-decanetriol] | 8067 pg/mL | 225 pg/mL | – | – | – |
| CCCCCCCCCCCCCCCCCCCCCCCC(=O)N[C@@H](COC1OC(CO)C(O)C(O)C1O)[C@H](O)[C@H](O)CCc1ccccc1 (stereo partly drawn) [Compound 115, 6-phenyl-2-tetracosanoylamino-1-O-α-D-galactopyranosyl-D-ribo-1,3,4-hexanetriol] | 2481 pg/mL | 137 pg/mL | – | – | – |
| CCCCCCCCCCCCCCCCCCCCCCCC(=O)N[C@@H](COC1OC(CO)C(O)C(O)C1O)[C@H](O)[C@H](O)CC1CCCC1 (stereo partly drawn) [Compound 116, 5-cyclopentyl-2-tetracosanoylamino-1-O-α-D-galactopyranosyl-D-ribo-1,3,4-pentanetriol] | 5268 pg/mL | 226 pg/mL | – | – | – |
| CCCCCCCCCCCCCCCCCCCCCCCC(=O)N[C@@H](COC1OC(CO)C(O)C(O)C1O)[C@H](O)[C@H](O)Cc1ccc(C)cc1 (stereo partly drawn) [Compound 117, 5-(4-methylphenyl)-2-tetracosanoylamino-1-O-α-D-galactopyranosyl-D-ribo-1,3,4-pentanetriol] | 5485 pg/mL | 181 pg/mL | – | – | – |
| CCCCCCCCCCCCCCOc1ccc(CCCCC(=O)N[C@@H](COC2OC(CO)C(O)C(O)C2O)[C@H](O)[C@H](O)CCCCC)cc1 (some centres unmarked) [Compound 127] | 2506 pg/mL | 159 pg/mL | – | – | – |
| CCCCCCCCCCCCCCCCCCCCCCCC(=O)N[C@@H](CO[C@H]1O[C@H](CO)[C@H](O)[C@H](O)[C@H]1O)[C@H](O)[C@H](O)CCCCC.O [Compound 129, 2-tetracosanoylamino-1-O-α-D-galactopyranosyl-D-ribo-1,3,4-nonanetriol 1-hydrate] | 7179 pg/mL | 232 pg/mL | – | – | – |
| CCCCCCCCCCCCCCCCCCCCCCCC(=O)N[C@@H](COC1OC(CO)C(O)C(O)C1O)[C@H](O)[C@H](O)CCCCC (some centres unmarked) [OCH] | – | – | effected in oral administration | more selectively promotes the production of IL-4 | – |
| CCCCCCCCCCCCCCCCCCCCCCCCCC(=O)N[C@@H](CO[C@H]1O[C@H](CO)[C@H](O)[C@H](O)[C@H]1O)[C@H](O)[C@H](O)CCCCCCCCCCCCCC [α-Galcer, (2S,3S,4R)-1-O-(α-D-galactosyl)-2-(N-hexacosanoylamino)-1,3,4-octadecanetriol, reference compound] | 21900 pg/mL | 201 pg/mL | – | causes NKT cells to produce IFN-γ and IL-4 | IFN-γ was produced remarkably dominantly |
